Non-standard residues stand in square brackets, D forms with d. Residues, ends and D or L forms follow the SMILES beside them. ξ: configuration not given here. *: point of attachment. Chg = N[CH](C(=O)O)C1CCCCC1; Nle = CCCC[CH](N)C(=O)O; Cbz = O=C(OCc1ccccc1)*; ξNle = CCCCC(N)C(=O)O; CHN2 = [N-]=[N+]=C*
What follows are compounds tested on Aβ formation in HGB 717/Swed cells (assay: Immunoblot assay for Aβ peptide (inhibition of Aβ formation)). Settings: concentration of 10 μM, overnight, relative to DMSO control.
Assay type: cell-based, Human

Point of comparison: C=C(C)CC(C=O)NC(=O)[C@H](Cc1ccccc1)NC(=O)[C@H](CC(C)C)NC(=O)OCc1ccccc1 (mixture of isomers) [Cbz-L-F-Lene-(H), (2SR)-N-Cbz-L-Leu-L-Phe-N-[2-(4-methyl-4-pentenal)]amide], “% INHIBITION OF Aβ” value 69%. Against it:
- CC(=O)N[C@@H](CC(C)C)C(=O)N[C@@H](CC(C)C)C(=O)NC(C=O)CC1CCCCC1 (mixture of isomers) [Ac-L-L-Cha-(H), N-Ac-L-Leu-L-Leu-DL-cyclohexylalaninal] — lower, 46%
- C=C(C)CC(C=O)NC(=O)[C@H](CC(C)C)NC(=O)[C@H](CC(C)C)NC(=O)OCc1ccccc1 (mixture of isomers) [Cbz-L-L-Lene-(H), (2SR)-N-Cbz-L-Leu-L-Leu N-[2-(4-methyl-4-pentenal)]amide] — higher, 95%

Same assay, conditions: concentration of 40 μM, overnight, relative to DMSO control

Point of comparison: CC(C)C[C@H](NC(=O)OCc1ccccc1)C(=O)N[C@@H](Cc1ccccc1)C(=O)NC(C=O)CC1CCCCC1 (mixture of isomers) [Cbz-L-F-Cha-(H), (2SR)-N-Cbz-L-Leu-L-Phe-DL-cyclohexylalaninal], “% INHIBITION OF Aβ” value 100%. Against it:
- C=C(C)CC(C=O)NC(=O)[C@H](CC(C)C)NC(=O)[C@H](CC(C)C)OCc1ccccc1 (mixture of isomers) [2S-benzoxyvaleric-L-Lene-(H), (2SR)-N-[(2S)-2-benzoxy-4-methylpentanoyl]-L-Leu N-[2-(4-methyl-4-pentenal)]amide] — lower, 85%
- CCCCC(C=O)N(C)C(=O)[C@H](CC(C)C)NC(=O)[C@H](CC(C)C)NC(=O)OCc1ccccc1 (mixture of isomers) [Cbz-L-L-[CH3]-Nl-(H), N-Cbz-L-Leu-L-Leu-DL-(methyl)norleucinal] — lower, 97%
- CCCCC(C=O)NC(=O)[C@H](CC(C)C)N(C)C(=O)[C@H](CC(C)C)NC(=O)OCc1ccccc1 (mixture of isomers) [Cbz-L-[CH3]-L-Nl-(H), N-Cbz-L-Leu-L-(methyl)Leu-DL-norleucinal] — lower, 77%
- CCCCC(C=O)NC(=O)C(CC(C)C)NC(=O)C1CCCN1C(=O)OCc1ccccc1 [Cbz-P-L-Nl-(H), N-Cbz-L-Pro-L-Leu-L-norleucinal] (Cbz-Pro-Leu-[Nle]-aldehyde; configuration not given here) — lower, 80%

Same assay, conditions: concentration of 50 μM, overnight, relative to DMSO control

CCCCC(C=O)NC(=O)[C@H](CC(C)C)NC(=O)[C@H](CC(C)C)NC(=O)OCC1c2ccccc2-c2ccccc21 (mixture of isomers) [Fmoc-L-L-Nl-(H), N-Fmoc-L-Leu-L-Leu-DL-norleucinal] was tested, and the “% INHIBITION OF Aβ” value was 89%.

Same assay, conditions: concentration of 75 μM, overnight, relative to DMSO control

Point of comparison: CCCCC(NC(=O)[C@H](CC(C)C)NC(=O)[C@H](CC(C)C)NC(C)=O)C(=O)C(F)(F)F (mixture of isomers) [Ac-L-L-Nl-(TFMK), (3SR)-N-Ac-L-Leu-L-Leu N-[3-(1,1,1-trifluoro-2-oxoheptyl)]amide], “% INHIBITION OF Aβ” value 50%. Against it:
- CC=CCC(C=O)NC(=O)[C@H](CC(C)C)NC(=O)[C@H](CC(C)C)NC(C)=O (mixture of isomers) [Ac-L-L-Nlene-(H), (2SR)-N-Ac-L-Leu-L-Leu N [2-(trans-4-hexenal)]amide] — higher, 96%
- CC(=O)NC(CC(C)C)C(=O)NC(CC(C)C)C(=O)NC(C=O)C1CCCCC1 [Ac-L-L-Chg-(H)] (Ac-Leu-Leu-[Chg]-aldehyde; configuration not given here) — higher, 99%
- CCCCC(C#N)NC(=O)[C@H](CC(C)C)NC(=O)[C@H](CC(C)C)NC(C)=O (stereo partly drawn) [Ac-L-L-Nl-(CN), (2S)-N-Ac-L-Leu-L-Leu N-[2-(hexanenitrile)]amide] — higher, 94%
- CCCCC(NC(=O)[C@H](CC(C)C)NC(=O)[C@H](CC(C)C)NC(C)=O)C(=O)C=[N+]=[N-] (stereo partly drawn) [Ac-L-L-Nl-(DM), N-Ac-L-Leu-L-Leu-L-Nle-COCHN2] (Ac-Leu-Leu-[ξNle]-CHN2) — higher, 87%
